Results from patent publication US20170087106A1, “Method for supporting gut health” (priority 2015, published 2017).

Assays:
Type in all cases: in vivo
[1] = system: TNBS experimental rat colitis; assay: TNBS rat colitis: colonic macroscopic damage score and weight/length ratio; settings: for Damage Score (0-10) / Weight/length: TNBS rat colitis, oral daily 7 days, mean ± SEM; for Weight/length: colon
Experimental: (§1) Female Wistar rats (180-200 g) were randomly assigned to nine groups (n=10). Three groups received treatment with CaPyr (20, 40 and 100 mg/kg); other three received treatment with ethyl pyruvate (20, 40 and 100 mg/kg); and the remaining was treated with sulphasalazine (30 mg/kg). All compounds were dissolved in 1 ml of carboxymethylcellulose (0.2%) in water solution, and administered daily by oral gavage. An untreated TNBS control group and a non-colitic group were included for reference, which received the vehicle used to administer the test compounds. Colonic inflammation was induced in control and treated groups as generally described (see Galvez et al. 2014). Briefly, rats were fasted overnight, anesthetized with halothane and given TNBS dissolved in 0.25 ml of 50% ethanol (v/v) by means of a Teflon cannula inserted 8 cm through the anus. During and after TNBS administration, the rats were kept in a head-down position until they recovered from anaesthesia, and then returned to their cages. Rats from the non-colitic group were administered intracolonically 0.25 ml of phosphate buffered saline instead of TNBS. The treatments were given from the day of the colitis induction until the sacrifice of the rats with an overdose of halothane, seven days later. Animal body weights, occurrence of diarrhoea, and water and food intake were recorded daily throughout all the experiments. Once the animals were sacrificed, the colon was removed aseptically and placed on an ice-cold plate, longitudinally opened and cleaned from their luminal contents with cold saline. Afterwards, it was weighed and its length measured under a constant load (2 g). Each colon was scored for macroscopically visible damage on a 0-10 scale by two observers unaware of the experiment, according to the criteria described before (see Galvez et al. 2014). Colon samples (0.5 cm^2) containing all the layers were taken from a region of the inflamed colon corresponding to the adjacent segment to the gross macroscopic damage and were fixed in 4% buffered formaldehyde for the histological studies. Equivalent colonic segments were also obtained from the non-colitic group. The colon was subsequently minced, aliquoted and kept frozen at −80° C. until biochemical determinations and RNA extraction was performed.

[2] = system: myeloperoxidase (MPO); assay: TNBS rat colitis: colonic myeloperoxidase (MPO) activity; settings: colonic tissue, oral daily 7 days, mean ± SEM
Experimental: as §1
(§2) Myeloperoxidase (MPO) activity was measured according to the technique described previously (Krawiszet al., 1984); the results were expressed as MPO units per gram of wet tissue; one unit of MPO activity was defined as that degrading 1 μmol hydrogen peroxide/min at 25° C. Total glutathione (GSH) content was quantified with the recycling assay described by Anderson (1985), and the results were expressed as nmol/g wet tissue. In order to evaluate tissue IL-1β levels, the colonic samples were homogenized in phosphate buffered saline supplemented with 0.1% sodium dodecyl sulfate (SDS), 0.1% sodium deoxycholate, 1% Triton X-100 and protease and phosphatase inhibitors (aprotinin, leupeptin and phenylmethylsulfonyl fluoride). The cytokine was quantified by enzyme-linked immunoabsorbent assay (R&D Systems Inc., Minneapolis, Minn., USA) and the results were expressed as pg/g wet tissue.

[3] = system: glutathione (GSH); assay: TNBS rat colitis: colonic total glutathione (GSH) content; settings: colonic tissue, oral daily 7 days, mean ± SEM
Experimental: as §1, §2

[4] = system: TNBS experimental rat colitis; assay: TNBS rat colitis: microscopic (histological) damage score; settings: oral daily 7 days, mean ± SEM
Experimental: as §1
Cross-sections were selected and embedded in paraffin. Full-thickness sections of 5 μm were obtained at different levels and stained with haematoxylin and eosin. The histological damage was evaluated by a pathologist observer, who was blinded to the experimental groups, according to the criteria previously described by Galvez.

[5] = system: IL-1β; assay: TNBS rat colitis: colonic IL-1β by ELISA; settings: colonic tissue, oral daily 7 days, mean ± SEM
Experimental: as §1, §2

[6] = system: IL-1β; assay: TNBS rat colitis: colonic IL-1β mRNA by real-time PCR; settings: colon, oral daily 7 days, mean ± SEM
Experimental: as §1
(§3) Analysis of gene expression in colonic samples by RT-qPCR Total RNA from colonic samples was isolated using Trizol® (Thermo Fisher Scientific Inc., Waltham, Mass. USA) following the manufacturer's protocol. All RNA samples were quantified with the Thermo Scientific NanoDrop™ 2000 Spectrophotometer (Thermo Fisher Scientific Inc., Waltham, Mass. USA) and […] of RNA were reverse transcribed using oligo(dT) primers (Promega, Southampton, UK).
(§4) Real time quantitative PCR amplification and detection was performed on optical-grade 48 well plates in an Eco™ Real-Time PCR System (Illumina, CA, USA) with 20 ng of cDNA, the KAPA SYBR® FAST qPCR Master Mix (Illumina, CA, USA) and specific primers at their annealing temperature (Ta). To normalize mRNA expression, the expression of the housekeeping gene, glyceraldehyde-3-phosphate dehydrogenase (GAPDH) was measured. The mRNA relative quantitation was calculated using the ΔΔCt method.

[7] = system: IL-6; assay: TNBS rat colitis: colonic IL-6 mRNA by real-time PCR; settings: colon, oral daily 7 days, mean ± SEM
Experimental: as §1, §3, §4

[8] = system: IL-12; assay: TNBS rat colitis: colonic IL-12 mRNA by real-time PCR; settings: colon, oral daily 7 days, mean ± SEM
Experimental: as §1, §3, §4

[9] = system: IL-17; assay: TNBS rat colitis: colonic IL-17 mRNA by real-time PCR; settings: colon, oral daily 7 days, mean ± SEM
Experimental: as §1, §3, §4

[10] = system: IL-23; assay: TNBS rat colitis: colonic IL-23 mRNA by real-time PCR; settings: colon, oral daily 7 days, mean ± SEM
Experimental: as §1, §3, §4

[11] = system: iNOS; assay: TNBS rat colitis: colonic iNOS mRNA by real-time PCR; settings: colon, oral daily 7 days, mean ± SEM
Experimental: as §1, §3, §4

[12] = system: CINC-1; assay: TNBS rat colitis: colonic CINC-1 mRNA by real-time PCR; settings: colon, oral daily 7 days, mean ± SEM
Experimental: as §1, §3, §4

[13] = system: MCP-1; assay: TNBS rat colitis: colonic MCP-1 mRNA by real-time PCR; settings: colon, oral daily 7 days, mean ± SEM
Experimental: as §1, §3, §4

[14] = system: ICAM-1; assay: TNBS rat colitis: colonic ICAM-1 mRNA by real-time PCR; settings: colon, oral daily 7 days, mean ± SEM
Experimental: as §1, §3, §4

[15] = system: MUC-2; assay: TNBS rat colitis: colonic MUC-2 mRNA by real-time PCR; settings: colon, oral daily 7 days, mean ± SEM
Experimental: as §1, §3, §4

[16] = system: TFF-3; assay: TNBS rat colitis: colonic TFF-3 mRNA by real-time PCR; settings: colon, oral daily 7 days, mean ± SEM
Experimental: as §1, §3, §4

Molecule: calcium pyruvate [CaPyr]
- Damage Score (0-10) ([1]; 20 mg/kg): 7.1 ± 0.4
- Damage Score (0-10) ([1]; 40 mg/kg): 5.7 ± 0.4
- Damage Score (0-10) ([1]; 100 mg/kg): 6.6 ± 0.6
- Weight/length ([1]; 20 mg/kg): 186.0 ± 22.8 mg/cm
- Weight/length ([1]; 40 mg/kg): 184.6 ± 25.1 mg/cm
- Weight/length ([1]; 100 mg/kg): 198.9 ± 15.0 mg/cm
- effect in TNBS-induced colitis (in words) ([1]; rats, 20, 40 and 100 mg/kg body weight, 7 days oral treatment): intestinal anti-inflammatory effects
- efficacy in TNBS colitis compared with the other treatments (in words) ([1]; rats, 7 days oral treatment): more effective than ethyl pyruvate and even better than the therapeutic drug Sulphasalazine
- MPO ([2]; 20 mg/kg): 48.2 ± 7.2 mU/g tissue
- MPO ([2]; 40 mg/kg): 48.8 ± 8.2 mU/g tissue
- MPO ([2]; 100 mg/kg): 57.7 ± 11.5 mU/g tissue
- GSH ([3]; 20 mg/kg): 389 ± 55 nmol/g tissue
- GSH ([3]; 40 mg/kg): 675 ± 67 nmol/g tissue
- GSH ([3]; 100 mg/kg): 768 ± 100 nmol/g tissue
- Microscopic Damage Score (0-59) ([4]; 20 mg/kg): 27 ± 2
- Microscopic Damage Score (0-59) ([4]; 40 mg/kg): 18 ± 5
- Microscopic Damage Score (0-59) ([4]; 100 mg/kg): 13 ± 2
- IL-1β (ELISA) ([5]; 20 mg/kg): 1095.0 ± 165.0 ng/g tissue
- IL-1β (ELISA) ([5]; 40 mg/kg): 765.0 ± 60.0 ng/g tissue
- IL-1β (ELISA) ([5]; 100 mg/kg): 810.1 ± 120.0 ng/g tissue
- IL-1β mRNA expression ([6]; 20 mg/kg): 3.90 ± 0.61 fold increase
- IL-1β mRNA expression ([6]; 40 mg/kg): 2.40 ± 0.61 fold increase
- IL-1β mRNA expression ([6]; 100 mg/kg): 4.80 ± 0.90 fold increase
- IL-6 mRNA expression ([7]; 20 mg/kg): 5.41 ± 1.01 fold increase
- IL-6 mRNA expression ([7]; 40 mg/kg): 3.20 ± 1.20 fold increase
- IL-6 mRNA expression ([7]; 100 mg/kg): 4.61 ± 1.01 fold increase
- IL-12 mRNA expression ([8]; 20 mg/kg): 1.09 ± 0.13 fold increase
- IL-12 mRNA expression ([8]; 40 mg/kg): 0.66 ± 0.18 fold increase
- IL-12 mRNA expression ([8]; 100 mg/kg): 1.62 ± 0.30 fold increase
- IL-17 mRNA expression ([9]; 20 mg/kg): 0.84 ± 0.09 fold increase
- IL-17 mRNA expression ([9]; 40 mg/kg): 0.63 ± 0.27 fold increase
- IL-17 mRNA expression ([9]; 100 mg/kg): 1.83 ± 0.48 fold increase
- IL-23 mRNA expression ([10]; 20 mg/kg): 1.47 ± 0.24 fold increase
- IL-23 mRNA expression ([10]; 40 mg/kg): 1.02 ± 0.21 fold increase
- IL-23 mRNA expression ([10]; 100 mg/kg): 1.98 ± 0.30 fold increase
- iNOS mRNA expression ([11]; 20 mg/kg): 10.37 ± 1.83 fold increase
- iNOS mRNA expression ([11]; 40 mg/kg): 8.85 ± 3.36 fold increase
- iNOS mRNA expression ([11]; 100 mg/kg): 9.15 ± 1.53 fold increase
- CINC-1 mRNA expression ([12]; 20 mg/kg): 3.59 ± 0.49 fold increase
- CINC-1 mRNA expression ([12]; 40 mg/kg): 2.93 ± 0.57 fold increase
- CINC-1 mRNA expression ([12]; 100 mg/kg): 3.50 ± 0.90 fold increase
- MCP-1 mRNA expression ([13]; 20 mg/kg): 3.03 ± 0.49 fold increase
- MCP-1 mRNA expression ([13]; 40 mg/kg): 1.80 ± 0.37 fold increase
- MCP-1 mRNA expression ([13]; 100 mg/kg): 2.13 ± 0.41 fold increase
- ICAM-1 mRNA expression ([14]; 20 mg/kg): 1.64 ± 0.25 fold increase
- ICAM-1 mRNA expression ([14]; 40 mg/kg): 0.95 ± 0.19 fold increase
- ICAM-1 mRNA expression ([14]; 100 mg/kg): 2.77 ± 0.44 fold increase
- MUC-2 mRNA expression ([15]; 20 mg/kg): 0.50 ± 0.14 fold increase
- MUC-2 mRNA expression ([15]; 40 mg/kg): 0.53 ± 0.16 fold increase
- MUC-2 mRNA expression ([15]; 100 mg/kg): 0.56 ± 0.11 fold increase
- TFF-3 mRNA expression ([16]; 20 mg/kg): 0.84 ± 0.23 fold increase
- TFF-3 mRNA expression ([16]; 40 mg/kg): 0.67 ± 0.17 fold increase
- TFF-3 mRNA expression ([16]; 100 mg/kg): 0.99 ± 0.19 fold increase

Molecule: O=C(O)c1cc(/N=N/c2ccc(S(=O)(=O)Nc3ccccn3)cc2)ccc1O [SAZ, sulphasalazine]
- Damage Score (0-10) ([1]; 30 mg/kg): 6.7 ± 0.4
- Weight/length ([1]; 30 mg/kg): 180.4 ± 16.9 mg/cm
- MPO ([2]; 30 mg/kg): 82.8 ± 8.2 mU/g tissue
- GSH ([3]; 30 mg/kg): 900 ± 118 nmol/g tissue
- Microscopic Damage Score (0-59) ([4]; 30 mg/kg): 30 ± 5
- IL-1β (ELISA) ([5]; 30 mg/kg): 840.0 ± 120.0 ng/g tissue
- IL-1β mRNA expression ([6]; 30 mg/kg): 9.70 ± 0.90 fold increase
- IL-6 mRNA expression ([7]; 30 mg/kg): 4.21 ± 0.80 fold increase
- IL-12 mRNA expression ([8]; 30 mg/kg): 1.59 ± 0.24 fold increase
- IL-17 mRNA expression ([9]; 30 mg/kg): 2.22 ± 0.54 fold increase
- IL-23 mRNA expression ([10]; 30 mg/kg): 1.26 ± 0.18 fold increase
- iNOS mRNA expression ([11]; 30 mg/kg): 16.47 ± 2.75 fold increase
- CINC-1 mRNA expression ([12]; 30 mg/kg): 4.89 ± 0.82 fold increase
- MCP-1 mRNA expression ([13]; 30 mg/kg): 2.62 ± 0.41 fold increase
- ICAM-1 mRNA expression ([14]; 30 mg/kg): 2.90 ± 0.88 fold increase
- MUC-2 mRNA expression ([15]; 30 mg/kg): 0.53 ± 0.14 fold increase
- TFF-3 mRNA expression ([16]; 30 mg/kg): 0.91 ± 0.12 fold increase
